In US7655429B2, “Immunoassays for topiramate” (Seradyn, Inc., priority 2004, dated 2010):

Test system: anti-topiramate antibodies prepared with immunogen (18)
Experiment: ELISA binding inhibition study (avidity), free topiramate versus coated antigen
Design: species or system Rabbit; Abs: unit not given here
Protocol: ELISA plates for use in an ELISA assay are prepared in order to study the polyclonal antibody prepared as described in Example 21. As such, various topiramate antigens (16), (19), and (20) are coated on different ELISA plates before being subjected to the anti-topiramate antibody and competing free topiramate. More particularly, the topiramate antigens are diluted in coating buffer, and then added to the wells of ELISA plate. After the ELISA plate is incubated for 60 min at 37° C., the solvent in the coating buffer is decanted and a blocking buffer is added to the plate. The plate is incubated again for 60 min at 37° C., and the solvent in the blocking buffer is decanted from the plate. The ELISA plate is then stored with the blocking agent in the wells at 2-8° C. for up to 1 week. The avidity of the anti-topiramate antibodies prepared with immunogen (17) for topiramate analogs are determined by a binding inhibition study. As such, samples are prepared in 1 mL of PBS at pH 7.4 with 0.1% BSA. A composition having 30% Bmax titer or 50% Bmax titer is used to divide the obtained titer value into approximately half the titer value. Using 30% Bmax, an antibody titer of 1:10,000 is diluted to 1:5,000 during the sample preparation stage. About 50 μL of topiramate at different concentrations or calibrator values, (0, 2, 4, 8, 16, 32 μg/ml) are then applied to a plate as prepared in accordance with Example 22. About 50 μL of the diluted antibody is dispensed into the plate, and the compositions in the plate are mixed for 1 min on a horizontal plate shaker. The plate is characterized by a first row not containing topiramate or anti-topiramate antibody, wherein the first row is used as a negative control. A second row not containing topiramate is used as the positive control. The plate is incubated for 60 min, and washed three times with 250 μL of PBS at pH 7.4 with 0.05% tween. About 125 μL of a diluted second antibody conjugate such as antigens (16), (19), or (20), in PBS at pH 7.4 is added to each well of the plate. Titer is determined experimentally by the plate being incubated for 60 min at 37° C. and washed 3 times with 250 μL PBS, pH 7.4 with 0.05% tween. Subsequently, about 125 μL of ABTS substrate is added to each well of the plate and incubated for 20 min. The avidity of the anti-topiramate antibodies prepared with immunogen (18) for topiramate analogs is determined by a binding inhibition study performed with an experimental protocol substantially similar as in Example 24.

[1] = Antigen 16, Topiramate 2 μg/ml, Rabbit No. 5490
[2] = Antigen 16, Topiramate 2 μg/ml, Rabbit No. 5495
[3] = Antigen 16, Topiramate 4 μg/ml, Rabbit No. 5490
[4] = Antigen 16, Topiramate 4 μg/ml, Rabbit No. 5495
[5] = Antigen 16, Topiramate 8 μg/ml, Rabbit No. 5490
[6] = Antigen 16, Topiramate 8 μg/ml, Rabbit No. 5495
[7] = Antigen 16, Topiramate 16 μg/ml, Rabbit No. 5490
[8] = Antigen 16, Topiramate 16 μg/ml, Rabbit No. 5495
[9] = Antigen 16, Topiramate 32 μg/ml, Rabbit No. 5490
[10] = Antigen 16, Topiramate 32 μg/ml, Rabbit No. 5495
[11] = Antigen 19, Topiramate 2 μg/ml, Rabbit No. 5490
[12] = Antigen 19, Topiramate 2 μg/ml, Rabbit No. 5495
[13] = Antigen 19, Topiramate 4 μg/ml, Rabbit No. 5490
[14] = Antigen 19, Topiramate 4 μg/ml, Rabbit No. 5495
[15] = Antigen 19, Topiramate 8 μg/ml, Rabbit No. 5490
[16] = Antigen 19, Topiramate 8 μg/ml, Rabbit No. 5495
[17] = Antigen 19, Topiramate 16 μg/ml, Rabbit No. 5490
[18] = Antigen 19, Topiramate 16 μg/ml, Rabbit No. 5495
[19] = Antigen 19, Topiramate 32 μg/ml, Rabbit No. 5490
[20] = Antigen 19, Topiramate 32 μg/ml, Rabbit No. 5495
[21] = Antigen 20, Topiramate 2 μg/ml, Rabbit No. 5490
[22] = Antigen 20, Topiramate 2 μg/ml, Rabbit No. 5495
[23] = Antigen 20, Topiramate 4 μg/ml, Rabbit No. 5490
[24] = Antigen 20, Topiramate 4 μg/ml, Rabbit No. 5495
[25] = Antigen 20, Topiramate 8 μg/ml, Rabbit No. 5490
[26] = Antigen 20, Topiramate 8 μg/ml, Rabbit No. 5495
[27] = Antigen 20, Topiramate 16 μg/ml, Rabbit No. 5490
[28] = Antigen 20, Topiramate 16 μg/ml, Rabbit No. 5495
[29] = Antigen 20, Topiramate 32 μg/ml, Rabbit No. 5490
[30] = Antigen 20, Topiramate 32 μg/ml, Rabbit No. 5495

## CC1(C)O[C@@H]2[C@@H](CO[C@@]3(COS(N)(=O)=O)OC(C)(C)O[C@@H]23)O1 [Topiramate, 2,3:4,5-di-O-isopropylidene-beta-D-fructopyranose sulfamate]
[1]
  Abs: 0.25
  B/Bo: 0.35
[2]
  Abs: 0.25
  B/Bo: 0.35
[3]
  Abs: 0.20
  B/Bo: 0.28
[4]
  Abs: 0.28
  B/Bo: 0.39
[5]
  Abs: 0.15
  B/Bo: 0.21
[6]
  Abs: 0.15
  B/Bo: 0.21
[7]
  Abs: 0.12
  B/Bo: 0.17
[8]
  Abs: 0.12
  B/Bo: 0.17
[9]
  Abs: 0.10
  B/Bo: 0.14
[10]
  Abs: 0.10
  B/Bo: 0.14
[11]
  Abs: 0.10
  B/Bo: 0.18
[12]
  Abs: 0.13
  B/Bo: 0.20
[13]
  Abs: 0.06
  B/Bo: 0.10
[14]
  Abs: 0.08
  B/Bo: 0.12
[15]
  Abs: 0.04
  B/Bo: 0.07
[16]
  Abs: 0.05
  B/Bo: 0.08
[17]
  Abs: 0.03
  B/Bo: 0.06
[18]
  Abs: 0.04
  B/Bo: 0.06
[19]
  Abs: 0.02
  B/Bo: 0.04
[20]
  Abs: 0.02
  B/Bo: 0.03
[21]
  Abs: 0.25
  B/Bo: 0.63
[22]
  Abs: 0.18
  B/Bo: 0.53
[23]
  Abs: 0.24
  B/Bo: 0.60
[24]
  Abs: 0.17
  B/Bo: 0.50
[25]
  Abs: 0.22
  B/Bo: 0.55
[26]
  Abs: 0.16
  B/Bo: 0.47
[27]
  Abs: 0.21
  B/Bo: 0.53
[28]
  Abs: 0.14
  B/Bo: 0.41
[29]
  Abs: 0.20
  B/Bo: 0.50
[30]
  Abs: 0.11
  B/Bo: 0.32
